According to ChEMBL document CHEMBL1833945, “Synthesis and anticonvulsant activity of new N-Mannich bases derived from 5-cyclopropyl-5-phenyl- and 5-cyclopropyl-5-(4-chlorophenyl)-imidazolidine-2,4-diones” (Bioorg Med Chem, 2011):
Blank lines part the entries; values can stand above or below the molecule they belong to. Active and inactive are the calls of the source. The rule behind the calls is not given here.

Experiments:
[1] = Lipophilicity, log P of compound; type: physicochemical; details: octanol/water
[2] = tested on: Mus musculus; assay: Neurotoxicity in CF1 albino mouse assessed as minimum dose causing loss of righting reflex at 300 mg/kg, ip after 4 hrs by rotarod test; type: toxicity, organism-based; set-up: dose 300 mg/kg, route intraperitoneal; details: in vivo
[3] = tested on: Mus musculus; assay: Anticonvulsant activity in ip dosed CF1 albino mouse assessed as protection against maximal electroshock-induced seizures after 0.5 hrs; type: functional; details: read-out: MED
[4] = tested on: Mus musculus; assay: Anticonvulsant activity in ip dosed CF1 albino mouse assessed as protection against subcutaneous pentylenetetrazole-induced seizures after 4 hrs; type: functional; details: read-out: MED
[5] = tested on: Mus musculus; assay: Neurotoxicity in CF1 albino mouse assessed as loss of rotard grasping at 300 mg/kg, ip after 0.5 hrs by rotarod test; type: toxicity, organism-based; set-up: dose 300 mg/kg, route intraperitoneal; details: in vivo
[6] = tested on: Mus musculus; assay: Anticonvulsant activity in ip dosed CF1 albino mouse assessed as protection against subcutaneous pentylenetetrazole-induced seizures after 0.5 hrs; type: functional; details: read-out: MED
[7] = tested on: Mus musculus; assay: Anticonvulsant activity in ip dosed CF1 albino mouse assessed as protection against maximal electroshock-induced seizures after 4 hrs; type: functional; details: read-out: MED
[8] = tested on: Mus musculus; assay: Neurotoxicity in CF1 albino mouse assessed as loss of rotard grasping at 300 mg/kg, ip after 4 hrs by rotarod test; type: toxicity, organism-based; set-up: dose 300 mg/kg, route intraperitoneal; details: in vivo
[9] = tested on: Mus musculus; assay: Anticonvulsant activity in CF1 albino mouse assessed as protection against subcutaneous pentylenetetrazole-induced seizures at 300 mg/kg, […] after 4 hrs; type: functional, organism-based; set-up: dose 300 mg/kg
[10] = tested on: Mus musculus; assay: Neurotoxicity in CF1 albino mouse assessed as impair in motor coordination at 300 mg/kg, ip after 0.5 hrs by rotarod test; type: toxicity, organism-based; set-up: dose 300 mg/kg, route intraperitoneal; details: in vivo
[11] = tested on: Mus musculus; assay: Anticonvulsant activity in CF1 albino mouse assessed as protection against maximal electroshock-induced seizures at 300 mg/kg, ip after 0.5 hrs; type: functional, organism-based; set-up: dose 300 mg/kg
[12] = tested on: Mus musculus; assay: Neurotoxicity in CF1 albino mouse assessed as impair in motor coordination at 300 mg/kg, ip after 4 hrs by rotarod test; type: toxicity, organism-based; set-up: dose 300 mg/kg, route intraperitoneal; details: in vivo
[13] = tested on: Mus musculus; assay: Toxicity in subcutaneous pentylenetetrazole-induced CF1 albino mouse assessed as myoclonic jerks at 300 mg/kg, ip after 4 hrs; type: organism-based; set-up: dose 300 mg/kg; details: in vivo, sc
[14] = tested on: Rattus norvegicus; assay: Anticonvulsant activity in Sprague-Dawley albino rat assessed as protection against maximal electroshock-induced seizures at 30 mg/kg, po after 0.25 hrs; type: functional, organism-based; set-up: dose 30 mg/kg
[15] = tested on: Rattus norvegicus; assay: Neurotoxicity in Sprague-Dawley albino rat assessed as motor impairment at 30 mg/kg, po after 4 hrs by rotarod test; type: toxicity, organism-based; set-up: dose 30 mg/kg, route oral; details: in vivo
[16] = tested on: Rattus norvegicus; assay: Neurotoxicity in Sprague-Dawley albino rat assessed as motor impairment at 30 mg/kg, po after 1 hrs by rotarod test; type: toxicity, organism-based; set-up: dose 30 mg/kg, route oral; details: in vivo
[17] = tested on: Rattus norvegicus; assay: Anticonvulsant activity in po dosed Sprague-Dawley albino rat assessed as time to peak effect; type: functional
[18] = Neurotoxicity in oral dosed Sprague-Dawley albino rat assessed as motor impairment by rotarod test; type: toxicity, organism-based; details: in vivo
[19] = tested on: Mus musculus; assay: Neurotoxicity in ip dosed CF1 albino mouse assessed as minimum dose required to cause impair in motor coordination after 4 hrs by rotarod test; type: toxicity, organism-based; details: in vivo
[20] = tested on: Rattus norvegicus; assay: Anticonvulsant activity in Sprague-Dawley albino rat assessed as protection against maximal electroshock-induced seizures at 30 mg/kg, po after 0.5 hrs; type: functional, organism-based; set-up: dose 30 mg/kg
[21] = tested on: Rattus norvegicus; assay: Anticonvulsant activity in Sprague-Dawley albino rat assessed as protection against maximal electroshock-induced seizures at 30 mg/kg, po after 4 hrs; type: functional, organism-based; set-up: dose 30 mg/kg
[22] = tested on: Rattus norvegicus; assay: Neurotoxicity in Sprague-Dawley albino rat assessed as motor impairment at 30 mg/kg, po after 0.25 hrs by rotarod test; type: toxicity, organism-based; set-up: dose 30 mg/kg, route oral; details: in vivo
[23] = tested on: Rattus norvegicus; assay: Anticonvulsant activity in po dosed Sprague-Dawley albino rat assessed as protection against maximal electroshock-induced seizures; type: functional
[24] = tested on: Rattus norvegicus; assay: Neurotoxicity in Sprague-Dawley albino rat assessed as motor impairment at 30 mg/kg, po after 0.5 hrs by rotarod test; type: toxicity, organism-based; set-up: dose 30 mg/kg, route oral; details: in vivo
[25] = tested on: Rattus norvegicus; assay: Neurotoxicity in Sprague-Dawley albino rat assessed as motor impairment at 30 mg/kg, po after 2 hrs by rotarod test; type: toxicity, organism-based; set-up: dose 30 mg/kg, route oral; details: in vivo
[26] = species: Rattus norvegicus; assay: Protective index, ratio of TD50 for neurotoxicity in Sprague-Dawley albino rat to ED50 for inhibition of maximal electroshock-induced seizures in Sprague-Dawley albino rat; type: functional
[27] = tested on: Rattus norvegicus; assay: Neurotoxicity in Sprague-Dawley albino rat assessed as motor impairment at 50 mg/kg, po after 0.25 hrs by rotarod test; type: toxicity, organism-based; set-up: dose 50 mg/kg, route oral; details: in vivo
[28] = tested on: Rattus norvegicus; assay: Neurotoxicity in Sprague-Dawley albino rat assessed as motor impairment at 50 mg/kg, po after 4 hrs by rotarod test; type: toxicity, organism-based; set-up: dose 50 mg/kg, route oral; details: in vivo
[29] = tested on: Rattus norvegicus; assay: Neurotoxicity in Sprague-Dawley albino rat assessed as motor impairment at 50 mg/kg, po after 0.5 hrs by rotarod test; type: toxicity, organism-based; set-up: dose 50 mg/kg, route oral; details: in vivo
[30] = tested on: Mus musculus; assay: Anticonvulsant activity in CF1 albino mouse assessed as protection against electrically-induced seizure at 100 mg/kg, ip after 0.25 hrs by 6Hz psychomotor seizure test; type: functional, organism-based; set-up: dose 100 mg/kg
[31] = tested on: Rattus norvegicus; assay: Anticonvulsant activity in Sprague-Dawley albino rat assessed as protection against subcutaneous pentylenetetrazole-induced seizures at 50 mg/kg, po after 0.25 hrs; type: functional, organism-based; set-up: dose 50 mg/kg
[32] = tested on: Rattus norvegicus; assay: Neurotoxicity in Sprague-Dawley albino rat assessed as motor impairment at 50 mg/kg, po after 1 hrs by rotarod test; type: toxicity, organism-based; set-up: dose 50 mg/kg, route oral; details: in vivo
[33] = tested on: Rattus norvegicus; assay: Neurotoxicity in Sprague-Dawley albino rat assessed as motor impairment at 50 mg/kg, po after 2 hrs by rotarod test; type: toxicity, organism-based; set-up: dose 50 mg/kg, route oral; details: in vivo
[34] = tested on: Rattus norvegicus; assay: Anticonvulsant activity in po dosed Sprague-Dawley albino rat assessed as protection against subcutaneous pentylenetetrazole-induced seizures; type: functional

Compound: O=C1NC(c2ccccc2)(C2CC2)C(=O)N1CN1CCN(C/C=C/c2ccccc2)CC1 (stereo unspecified)
logP [1]: 3.3 | Activity [2]: Toxic | minimal effective dose [3]: 100 mg/kg | minimal effective dose [4]: 300 mg/kg | Activity [5]: Toxic | minimal effective dose [6]: 100 mg/kg | minimal effective dose [7]: 100 mg/kg

Compound: O=C1NC(c2ccc(Cl)cc2)(C2CC2)C(=O)N1CN1CCN(c2ccccc2)CC1 (stereo unspecified)
Activity [8]: Toxic | minimal effective dose [7]: 100 mg/kg | Activity [9]: inactive | Activity [10]: Non-toxic | Activity [11]: inactive

Compound: O=C1NC(c2ccccc2)(C2CC2)C(=O)N1CN1CCN(CCc2ccccc2)CC1 (stereo unspecified)
Activity [13]: Toxic | Activity [14]: inactive | Activity [15]: Non-toxic | Activity [16]: Non-toxic | Time [17]: 4 h | TD50 [18]: > 100 mg/kg | MTC [19]: 300 mg/kg | logP [1]: 2.98 | Activity [20]: inactive | Activity [21]: Active | Activity [22]: Non-toxic | ED50 [23]: 17.1 mg/kg | Activity [24]: Non-toxic | Activity [25]: Non-toxic | minimal effective dose [7]: 30 mg/kg | PI [26]: >5.86 | Activity [10]: Non-toxic | Activity [11]: inactive

Compound: O=C1NC(c2ccccc2)(C2CC2)C(=O)N1CN1CCN(c2ccccc2F)CC1 (stereo unspecified)
minimal effective dose [7]: 100 mg/kg | Activity [9]: inactive | Activity [12]: Non-toxic | Activity [10]: Non-toxic | Activity [11]: inactive

More lines, main results first:

logP [1]: 3.71
Compound: O=C1NC(c2ccc(Cl)cc2)(C2CC2)C(=O)N1CN1CCc2ccccc2C1 (stereo unspecified)
minimal effective dose [7]: 300 mg/kg | Activity [9]: inactive | Activity [12]: Non-toxic | Activity [10]: Non-toxic | Activity [11]: inactive

logP [1]: 2
Compound: O=C1NC(c2ccc(Cl)cc2)(C2CC2)C(=O)N1CN1CCOCC1 (stereo unspecified)
Activity [27]: Non-toxic | Activity [28]: Non-toxic | Activity [29]: Non-toxic | Activity [2]: Toxic | minimal effective dose [3]: 100 mg/kg | Activity [30]: inactive | minimal effective dose [4]: 300 mg/kg | Activity [5]: Toxic | Activity [31]: inactive | Activity [32]: Non-toxic | minimal effective dose [6]: 100 mg/kg | minimal effective dose [7]: 100 mg/kg | Activity [33]: Non-toxic

logP [1]: 3.19
Compound: CC(c1ccccc1)N1CCN(CN2C(=O)NC(c3ccccc3)(C3CC3)C2=O)CC1 (stereo unspecified)
Activity [13]: Toxic | Activity [15]: Non-toxic | Activity [16]: Non-toxic | Time [17]: 2 h | TD50 [18]: > 200 mg/kg | minimal effective dose [3]: 300 mg/kg | Activity [22]: Non-toxic | ED50 [34]: < 100 mg/kg | ED50 [23]: 10.9 mg/kg | Activity [24]: Non-toxic | Activity [25]: Non-toxic | minimal effective dose [7]: 100 mg/kg | PI [26]: >18.3 | Activity [12]: Non-toxic | Activity [10]: Non-toxic
